Data reported in patent US6630569B1, “Ectoparasiticide agents” (priority 1998, dated 2003).

Assays:
[1] = system: Adult females of Boophilus microplus (parkhurst strain, SP-resistant); assay: Test with resistant monoxenous cattle ticks / SP-resistant Parkhurst strain (injection into abdomen); type: in vivo; settings: dosage 20 μg injected; 100% = no fertile eggs
Description: Test with Resistant Monoxenous Cattle Ticks/SP-resistant Parkhurst Strain
Test animals: Adult females of Boophilus microplus (parkhurst strain, SP-resistant) which have sucked themselves full
(§1) Solvent: Dimethyl sulphoxide
20 mg of active compound are dissolved in one ml of dimethyl sulphoxide, more dilute concentrations are prepared by dilution in the same solvent.
The test is carried out in five replications. 1 μl of the solutions is injected into the abdomen, and the animals are transferred into dishes and kept in a climatized room. After seven days, the activity is checked by examination for the position of fertile eggs. Eggs whose fertility is not visible from the outside are stored in glass tubes in a controlled-environment cabinet until the larvae have hatched after about 24 days. An activity of 100% means that the tick has not produced any fertile eggs.

[2] = system: Adults of Ctenocephalides felis; assay: Test with cat fleas / oral uptake; type: in vivo; settings: dosage 100 μg; mortality after 24 h, blood feeding
Description: Test with Cat Fleas/oral Uptake
Test animals: Adults of Ctenocephalides felis
Solvent: Dimethyl sulphoxide (DMSO)
7.5 μl of this formulation are added to 3.5 ml of citrated cattle blood and stirred.
20 unfed adult fleas (Ctenocephalides felis, strain “Georgi”) are placed into a chamber (Ø 2.5 cm) whose top and bottom are closed with gauze. A metal cylinder whose underside is covered with parafilm is placed onto the chamber. […] Whereas the blood is warmed to 37° C., the temperature in the area of the flea chambers is adjusted to 25° C. Controls are mixed with the same volume of DMSO, without addition of a compound. The determinations are carried out in triplicate.
After 24 h, the mortality in % (=dead fleas) is determined, using imidacloprid as standard.

[3] = system: All stages of Boophilus microplus, pyrethroid-resistant strain; assay: In vivo test on ticks / mini-dip on cattle; settings: dosage 1000 μg, 100% = no ticks with fertile eggs
Description: In vivo Test on Ticks/mini-dip on Cattle
Test object: All stages of Boophilus microplus (larvae, metalarvae, nymphs, metanymphs and adults) pyrethroid-resistant strain.
Solution: Active compound 30% strength in methyl glycol and emulsifier NP 10 in a ratio of 1:1.
For the treatment of the cattle, concentrations of 1000, 300, 100, 30, 10 and 1 ppm are used, in a volume of 200 ml. The cattle hide to be treated is wetted with the solution of active compound for 1 min.
14×, in intervals of two days, cattle is infected with about 3000 14- to 28-day-old larvae of B. microplus which have not been fed. On day 23 p.i., defined areas on the surface of the cattle skin are wetted with the abovementioned preparation of active compound. From day 24 to 45 p.i., the female adult ticks which develop are counted, and the fertility of the eggs laid by these ticks is checked and used to determine the activity of the preparation of active compound.

silkworms = settings: in vivo; cited from earlier work
[4] = system: Lucilia cuprina larvae (1st-3rd stage); assay: Blowfly larvae test / development-inhibitory action; type: in vivo; settings: 100% = no flies hatched
Description: Blowfly Larvae Test/Development-inhibitory Action
Test animals: Lucilia cuprina larvae (1st-3rd stage)
as §1
20 mg of active compound are dissolved in one ml of dimethyl sulphoxide. To prepare a suitable formulation, the solution of active compound is diluted with water to the particular desired concentration.
About 20 Lucilia cuprina larvae are introduced into a test tube which contains about 1 cm^3 of horse meat and 0.5 ml of the preparation of active compound to be tested. After 24 hours and 48 hours, the effectiveness of the preparation of active compound is determined. The test tubes are transferred into beakers whose bottom is covered with sand. After a further two days, the test tubes are removed and the pupae are counted.
The effect of the preparation of active compound is assessed by the number of flies which have hatched after 1.5 times the development period of an untreated control. 100% means that no flies have hatched; 0% means that all flies have hatched normally.

Row | Structure (SMILES) | Activity (in %) [1] [%] | Activity (in %) [2] [%] | Activity (in %) [3] [%] | insecticidal activity against silkworms (silkworms) | Activity (in %) ([4]; dosage 1000 ppm) [%] | Activity (in %) ([4]; dosage 100 ppm) [%]
1 | CC(C)C[C@H]1C(=O)O[C@H](Cc2ccccc2)C(=O)N(C)[C@@H](CC(C)C)C(=O)O[C@H](C)C(=O)N(C)[C@@H](CC(C)C)C(=O)O[C@H](Cc2ccccc2)C(=O)N(C)[C@@H](CC(C)C)C(=O)O[C@H](C)C(=O)N1C [PF 1022A, cyclo(-N-methyl-L-leucinyl-D-lactyl-N-methyl-L-leucinyl-D-phenyllactyl-N-methyl-L-leucinyl-D-lactyl-N-methyl-L-leucinyl-D-phenyllactyl-)] | 0 | 0 | 0 | insecticidal activity | 0 | –
2 | CC(C)C[C@H]1C(=O)O[C@H](C(C)C)C(=O)N(C)[C@@H](CC(C)C)C(=O)O[C@H](C(C)C)C(=O)N(C)[C@@H](CC(C)C)C(=O)O[C@H](C(C)C)C(=O)N(C)[C@@H](CC(C)C)C(=O)O[C@H](C(C)C)C(=O)N1C [bassianolide] | – | – | – | insecticidal activity | – | –
3 | CC(C)C[C@@H]1C(=O)O[C@@H](Cc2ccc(N3CCOCC3)cc2)C(=O)N(C)[C@H](CC(C)C)C(=O)O[C@@H](C)C(=S)N(C)[C@H](CC(C)C)C(=O)O[C@@H](Cc2ccc(N3CCOCC3)cc2)C(=O)N(C)[C@H](CC(C)C)C(=O)O[C@@H](C)C(=O)N1C [compound 9, Cyclo-(N-methyl-L-leucinyl-D-thiolactyl-N-methyl-L-leucinyl-D-4-morpholino-phenyllactyl-N-methyl-L-leucinyl-D-lactyl-N-methyl-L-leucinyl-D-4-N-morpholinophenyllactyl-)] | – | 100 | – | – | 100 | 100
